Test in all cases: Bliss interaction score (quartile over a dose matrix) (fitness difference); higher = more antagonism (negative = synergy)
In test [1] the test system is B. subtilis 168. A digest of the protocol: (§1)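 Fitness was OD595 at entry into stationary phase divided by the plate's robust no-drug mean and capped at 1; single-drug fitness was inferred from combination data. The Bliss score is observed minus expected (product) fitness, summarised by quartiles over technical, biological and donor/recipient replicates.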
The test system of test [2] is S. aureus DSM 20231. In outline: as §1
Test [3] concerns S. aureus Newman. A digest of the protocol:
as §1

Test [4] relates to S. pneumoniae D39V. In outline: as §1
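Also: first quartile when negative (synergy) and third quartile when positive (antagonism).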

For the compound `CC(=O)Oc1ccccc1C(=O)O` [Acetylsalicylicacid] + C1=CC(=CC(=C1)Cl)NN=C(C#N)C#N [CCCP], the Bliss interaction score in test [1] is -0.0436; in test [2] it was -0.138; in test [3] it was -0.0296; in test [4], -0.161.

On to `CC(=O)Oc1ccccc1C(=O)O` [Acetylsalicylicacid] + C/C(=C\C(=O)OCCCCCCCCC(=O)O)C[C@@H]1OC[C@H](C[C@@H]2O[C@H]2[C@@H](C)[C@H](C)O)[C@@H](O)[C@H]1O [Pseudomonic acid], for which the Bliss interaction score is -0.2 in test [1], -0.0241 in test [2], -0.0211 in test [3] and -0.0974 in test [4].

`CO/N=C(\C(=O)N[C@@H]1C(=O)N2C(C(=O)O)=C(COC(N)=O)CS[C@H]12)c1ccco1` [Cefuroxime] + C/C(=C\C(=O)OCCCCCCCCC(=O)O)C[C@@H]1OC[C@H](C[C@@H]2O[C@H]2[C@@H](C)[C@H](C)O)[C@@H](O)[C@H]1O [Pseudomonic acid]: the Bliss interaction score in test [1] is 0.074; in test [4], 0.0629.

For the compound `CO/N=C(\C(=O)N[C@@H]1C(=O)N2C(C(=O)O)=C(COC(N)=O)CS[C@H]12)c1ccco1` [Cefuroxime] + O=C(O)[C@H]1/C(=C/CO)O[C@@H]2CC(=O)N21 [Clavulanic], the figures for the Bliss interaction score in test [1] and in test [4] were -0.0417 and -0.0363, respectively.

As for `COCCOC(=O)C1=C(C)NC(C)=C(C(=O)OC/C=C/c2ccccc2)C1c1cccc([N+](=O)[O-])c1` (stereo unspecified) [Cilnidipine] + CN(C)[C@@H]1C(O)=C(C(N)=O)C(=O)[C@@]2(O)C(O)=C3C(=O)c4c(O)ccc(Cl)c4[C@@](C)(O)[C@H]3C[C@@H]12 [Clortetracycline], in test [2], the Bliss interaction score was -0.323.

As for `COCCOC(=O)C1=C(C)NC(C)=C(C(=O)OC/C=C/c2ccccc2)C1c1cccc([N+](=O)[O-])c1` (stereo unspecified) [Cilnidipine] + CO[C@@]12[C@H](COC(N)=O)C3=C(C(=O)C(C)=C(N)C3=O)N1C[C@@H]1N[C@@H]12 [MitomycinC], the Bliss interaction score in test [2] is -0.236.

As for `COCCOC(=O)C1=C(C)NC(C)=C(C(=O)OC/C=C/c2ccccc2)C1c1cccc([N+](=O)[O-])c1` (stereo unspecified) [Cilnidipine] + COc1cc(Cc2cnc(N)nc2N)cc(OC)c1OC [Trimethoprim], in test [2], the Bliss interaction score was -0.299.

In the case of `COCCOC(=O)C1=C(C)NC(C)=C(C(=O)OC/C=C/c2ccccc2)C1c1cccc([N+](=O)[O-])c1` (stereo unspecified) [Cilnidipine] + C[C@H]1c2cccc(O)c2C(=O)C2=C(O)[C@]3(O)C(=O)C(C(N)=O)=C(O)[C@@H](N(C)C)[C@@H]3[C@@H](O)[C@@H]21 [Doxycycline], the Bliss interaction score in test [2] was -0.272.

As to `COCCOC(=O)C1=C(C)NC(C)=C(C(=O)OC/C=C/c2ccccc2)C1c1cccc([N+](=O)[O-])c1` (stereo unspecified) [Cilnidipine] + Clc1ccc(COC(Cn2ccnc2)c2ccc(Cl)cc2Cl)c(Cl)c1 [Miconazole], in test [2], the Bliss interaction score was 0.105.

`COCCOC(=O)C1=C(C)NC(C)=C(C(=O)OC/C=C/c2ccccc2)C1c1cccc([N+](=O)[O-])c1` (stereo unspecified) [Cilnidipine] + Cn1nnc(-c2ccc(-c3ccc(N4C[C@H](CO)OC4=O)cc3F)cn2)n1 [Tedizolid]: the Bliss interaction score in test [2] was -0.429.

On to `O=C(O)c1cn(C2CC2)c2cc(N3CCNCC3)c(F)cc2c1=O` [Ciprofloxacin] + CCCSc1nc(N[C@@H]2C[C@H]2c2ccc(F)c(F)c2)c2nnn([C@@H]3C[C@H](OCCO)[C@@H](O)[C@H]3O)c2n1 [Ticagrelor], for which the Bliss interaction score in test [2] is -0.375.

Take `O=C(O)c1cn(C2CC2)c2cc(N3CCNCC3)c(F)cc2c1=O` [Ciprofloxacin] + COc1cc2ncnc(Nc3ccc(F)c(Cl)c3)c2cc1OCCCN1CCOCC1 [Gefitinib]: the Bliss interaction score in test [2] is -0.336.

For the compound `O=C(O)c1cn(C2CC2)c2cc(N3CCNCC3)c(F)cc2c1=O` [Ciprofloxacin] + Cc1c(Cl)cccc1Nc1ccccc1C(=O)O [Tolfenamic], the Bliss interaction score in test [2] is -0.188.

For the origin of these results see the supplement of paper PMC10627819.
